The values below come from PMC9080042, “Biochemical and kinetic characterization of laccase and manganese peroxidase from novel Klebsiella pneumoniae strains and their application in bioethanol production” (RSC Advances, 2018).

Holding throughout (test): ABTS oxidation at […] nm, Lineweaver-Burk
Format in all cases: biochemical, Klebsiella pneumoniae

The subject of one test is T1, laccase (NITW715076_2).
T1 construct: gene lac; native extracellular enzyme from culture supernatant; ammonium sulphate, dialysis, DEAE-sepharose; 66 kDa by SDS-PAGE; gene not identified
The note with it: 0.1 M citrate buffer pH 5.0, optimum temperature (60 °C); methods call the enzyme partially purified; read-out: Laccase / K m.

The next test has as its system T2, laccase (NITW715076).
T2 construct: gene lac; native extracellular enzyme from culture supernatant; ammonium sulphate, dialysis, DEAE-sepharose; 66 kDa by SDS-PAGE; gene not identified
The note with it: 0.1 M citrate buffer pH 5.0, optimum temperature (50 °C); methods call the enzyme partially purified; read-out: Laccase / K m.

For a further test, the system named is T3, laccase (NITW715076_1).
T3 construct: gene lac; native extracellular enzyme from culture supernatant; ammonium sulphate, dialysis, DEAE-sepharose; 66 kDa by SDS-PAGE; gene not identified
The conditions noted are these: 0.1 M citrate buffer pH 5.0, optimum temperature (50 °C); methods call the enzyme partially purified; read-out: Laccase / K m.

Molecules are shown by their SMILES.

For the compound `CCn1c(=NN=c2sc3cc(S(=O)(=O)O)ccc3n2CC)sc2cc(S(=O)(=O)O)ccc21` [ABTS, 2,2′-azino-bis(3-ethylbenzothiazoline)-6-sulfonic acid], the Km amounted to 380 µM in the test with laccase (NITW715076_2), 467 µM with laccase (NITW715076) and 3970 µM in the test with laccase (NITW715076_1).
